What was measured:
[1] = tested on: JH2 pseudokinase domain of TYK2; settings: background statement; cited from earlier work
[2] = tested on: TYK2 signaling pathway (IFN-α/pSTAT1); assay: IFN-α-induced STAT1 phosphorylation in mouse whole blood; format: cell-based; settings: CD3+ cells
Method: The purpose of this experiment was to detect the inhibitory effect of the compound on the JAK-STAT signaling pathway activated by IFN-α in mouse whole blood. Fresh mouse whole blood was collected and placed in a 96-well plate. The test compound was added and incubated for 1 hour, followed by stimulation with IFN-α. The corresponding STAT1 phosphorylation level in the CD3^+ cell population was analyzed using flow cytometer by means of surface antibody staining and intracellular phosphorylated antibody staining. The IFN-α-induced STAT1 phosphorylation in mouse whole blood is dependent on TYK2 activity. By detecting the inhibitory activity of the compound on downstream […] phosphorylation, the half maximal inhibitory concentration (IC50) of the compound on TYK2 signaling pathway activity can be determined.
• a) The compound was prepared into a 10 mM solution with dimethyl sulfoxide (DMSO), and diluted in DMSO to a solution with various concentrations, 500 times the final concentration. • b) 5 μL of the diluted compound was transferred to 120 μL of phosphate buffered saline (PBS) containing 0.1% bovine serum albumin (BSA). • c) Positive and negative control groups were set up, with both finally containing 0.2% DMSO.
• a) 67.5 μL of mouse whole blood was added to each well of a 96-well cell culture plate. • b) 3.5 μL of the diluted compound was added thereto and mixed thoroughly. • c) The plate was incubated in a 37° C. incubator for 60 minutes. • d) Mouse interferon recombinant protein was diluted 125-fold in PBS containing 0.1% BSA, and anti-mouse CD3 antibody was diluted 5-fold in PBS containing 0.1% BSA. 5 μL of diluted anti-mouse CD3 antibody and 4 μL of diluted mouse interferon recombinant protein were added to each well. • e) The plate was incubated in a 37° C. incubator for 30 minutes. • f) All cells were transferred to a 96-well deep well plate, and 1 mL of 37° C. pre-warmed 1× lysis/fixation buffer was added thereto. • g) The cells were incubated in the dark at 37° C. for 10 minutes. • h) After centrifugation at 600 g for 5 minutes, the supernatant was discarded, and the cells were washed twice with 1 mL of PBS by centrifugation. • i) 0.4 mL per well of permeabilization buffer was added to the cell pellet and mixed thoroughly. The cells were incubated in the dark at 4° C. for 30 minutes. • j) After centrifugation at 600 g for 5 minutes, the supernatant was discarded, and the cells were washed twice with 1 mL of flow cytometry staining buffer (PBS+0.2% BSA+1 mM EDTA) by centrifugation. • k) Anti-STAT1 antibody was diluted 65-fold in flow cytometry staining buffer, and added to cell-containing wells at 100 μL per well and mixed thoroughly. • l) The cells were incubated at room temperature for 40 minutes. • m) 1 mL per well of flow cytometry staining buffer was added, and the cells were washed twice by centrifugation at 600 g for 5 minutes. • n) The supernatant was discarded, and the cell pellet was resuspended in 300 μL of flow cytometry staining buffer. • o) The samples were loaded for analysis using the Beckman CytoFlex flow cytometer.
Data were analyzed using FlowJo software. Curve fitting was performed and the IC50 was calculated using GraphPad Prism 8 software.

Ba/F3-TEL-TYK2 cells = assay: Proliferation of Ba/F3-TEL-TYK2 cells (CellTiter-Glo); format: cell-based; settings: 72 hours, read-out: Half maximal inhibitory concentration IC50 for cells Ba/F3-TEL-TYK2
From the text: (§1) Adenosine triphosphate (ATP) serves as a universal energy carrier in various life processes, representing the smallest unit of energy storage and transfer. The CellTiter-Glo™ Luminescent Cell Viability Assay Kit utilizes luciferase as a detection agent. During the luminescent process, luciferase requires the participation of ATP. By adding CellTiter-Glo™ reagent to the cell culture medium and measuring the luminescence, the light signal was directly proportional to the amount of ATP in the system, and ATP was positively correlated with the number of viable cells. Therefore, cell proliferation can be detected by measuring ATP content using the CellTiter-Glo kit. In this test, the cell lines used were Ba/F3-FL-TYK2-E957D and Ba/F3-TEL-TYK2. Ba/F3-FL-TYK2-E957D cells can stably express the exogenously introduced human TYK2-E957D gene, and the TYK2-E957D gene sequence contains both JH1 and JH2 domains. On the other hand, Ba/F3-TEL-TYK2 cells can stably express the exogenously introduced human TEL-TYK2 gene, and the TEL-TYK2 gene sequence contains only the JH1 domain of TYK2.
(§2) The cell lines were cultured in an incubator at 37° C. with 5% CO2. Regular passaging was performed, and cells in the logarithmic growth phase were selected for plating.
(§3) • a) The test compounds were prepared into a 10 mM solution with DMSO, and then diluted to 0.3 or 1 mM with DMSO. • b) Preparation of 1000× compound storage plate (tube): The compounds were 3-fold serially diluted from the highest concentration to the lowest concentration, creating 9 different concentrations. • c) Preparation of 20× compound working solution: 49 μL of cell culture medium was added to a flat-bottomed 96-well transparent drug plate. From the 1000× compound storage plate, 1 μL of the compound was pipetted into the cell culture medium in the 96-well transparent drug plate. In the solvent control, 1 μL of DMSO was added. After the compound or DMSO was added, the mixture was homogenized using a multi-channel pipette.
(§4) • a) Cells were stained with trypan blue and viable cells were counted to ensure a cell viability of 90% or more. • b) 95 μL of cell suspension (2000 cells/well) was added to each well of the compound assay cell plate, and cell-free culture medium containing 0.1% DMSO was added to the Min control wells. • c) Administration in the compound assay cell plate: 5 μL of 20× compound working solution was added to the cell culture plate. 5 μL of DMSO-cell culture medium mixture was added to the Max control wells. The final concentration of DMSO was 0.1%. • d) The culture plate was then incubated in an incubator at 37° C. with 5% CO2 for 72 hours.
(§5) The following steps were conducted in accordance with the instructions of the Promega CellTiter-Glo Luminescent Cell Viability Assay Kit (Promega-G7573). • a) CellTiter-Glo buffer was thawed and brought to room temperature. • b) CellTiter-Glo substrate was also brought to room temperature. • c) CellTiter-Glo buffer was added to a bottle of CellTiter-Glo substrate to dissolve the substrate, thereby preparing CellTiter-Glo working solution. • d) The mixture was slowly vortexed and shaken to be fully dissolved. • e) The cell culture plate was removed and allowed to equilibrate to room temperature for 10 minutes. • f) 50 μL (equal to half the volume of cell culture medium in each well) of CellTiter-Glo working solution was added to each well. • g) The culture plate was shaken on an orbital shaker for 2 minutes to induce cell lysis. • h) The plate was then left at room temperature for 10 minutes to stabilize the luminescent signal. • i) The luminescent signal was detected using a SpectraMax Paradigm plate reader.
(§6) Data analysis was conducted using GraphPad Prism 5.0 software. Nonlinear S-curve regression was employed to fit the data and generate dose-response curves. From these curves, the IC50 values were calculated.

[3] = molecular target: Ba/F3-FL-TYK2-E957D cells (Homo sapiens, UniProt P29597, E957D, cells depend on it); assay: Proliferation of Ba/F3-FL-TYK2-E957D cells (CellTiter-Glo); format: cell-based, mouse; settings: 72 hours, read-out: Half maximal inhibitory concentration IC50 for cells Ba/F3-FL-TYK2-E957D
Chain of Ba/F3-FL-TYK2-E957D cells (P29597 whole entry E957D): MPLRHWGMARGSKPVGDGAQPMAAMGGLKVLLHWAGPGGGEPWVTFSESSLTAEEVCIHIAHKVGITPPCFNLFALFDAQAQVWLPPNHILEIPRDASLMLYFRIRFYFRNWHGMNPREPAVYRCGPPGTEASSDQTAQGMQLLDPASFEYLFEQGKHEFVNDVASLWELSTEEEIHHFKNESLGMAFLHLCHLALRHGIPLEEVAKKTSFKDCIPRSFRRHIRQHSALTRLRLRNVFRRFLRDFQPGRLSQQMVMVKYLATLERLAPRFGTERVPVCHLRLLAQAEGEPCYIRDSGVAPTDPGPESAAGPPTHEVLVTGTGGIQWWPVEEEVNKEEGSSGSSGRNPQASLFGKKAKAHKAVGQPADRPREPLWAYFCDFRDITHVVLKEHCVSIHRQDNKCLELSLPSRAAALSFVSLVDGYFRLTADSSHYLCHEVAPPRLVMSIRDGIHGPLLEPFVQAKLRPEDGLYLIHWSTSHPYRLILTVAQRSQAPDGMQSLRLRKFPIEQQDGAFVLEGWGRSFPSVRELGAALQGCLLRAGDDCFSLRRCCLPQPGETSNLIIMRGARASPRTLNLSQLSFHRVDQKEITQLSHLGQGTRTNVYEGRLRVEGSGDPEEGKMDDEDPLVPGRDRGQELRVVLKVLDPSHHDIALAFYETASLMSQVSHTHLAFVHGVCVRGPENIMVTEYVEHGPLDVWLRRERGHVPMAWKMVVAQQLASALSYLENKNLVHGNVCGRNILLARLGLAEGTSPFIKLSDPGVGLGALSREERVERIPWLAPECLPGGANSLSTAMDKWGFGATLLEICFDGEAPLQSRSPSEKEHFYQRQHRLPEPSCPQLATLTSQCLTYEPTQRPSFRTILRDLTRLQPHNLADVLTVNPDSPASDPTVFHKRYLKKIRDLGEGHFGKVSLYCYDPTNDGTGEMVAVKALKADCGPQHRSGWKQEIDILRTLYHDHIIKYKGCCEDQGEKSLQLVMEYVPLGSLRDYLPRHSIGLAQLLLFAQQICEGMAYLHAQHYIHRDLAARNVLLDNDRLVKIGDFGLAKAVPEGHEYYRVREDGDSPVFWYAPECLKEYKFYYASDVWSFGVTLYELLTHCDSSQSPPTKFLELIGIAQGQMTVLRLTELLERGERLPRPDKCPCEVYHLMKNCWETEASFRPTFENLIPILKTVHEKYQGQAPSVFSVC
From the text: as §1, §2, §3, §4, §5, §6

Row | SMILES | kinase selectivity [1] [fold] | IC50 [2] [nM] | IC50 (Ba/F3-TEL-TYK2 cells) [nM] | GI50 [3] [nM]
1 | [2H]C([2H])([2H])NC(=O)c1nnc(NC(=O)C2CC2)cc1Nc1cccc(-c2ncn(C)n2)c1OC [BMS-986165] | > 1000 |  |  | 
2 | COc1c(Nc2cc(NC(=O)C3CC3)ncc2C(N)=O)cccc1-c1ccc(S(=O)(=O)C(C)C)cn1 [Trifluoroacetate of WX-034] |  | 93.2 | > 10000 | 0.1
3 | COc1c(Nc2cc(NC(=O)C3CC3)ncc2C(N)=O)cccc1-c1ncc(S(=O)(=O)C(C)C)cn1 [WX-033] |  | 316 | > 10000 | 0.1

From patent US20240335462A1, “SULFUR/PHOSPHORUS-CONTAINING ARYL COMPOUND AND APPLICATION THEREOF” (MEDSHINE DISCOVERY INC., priority 2021, published 2024)
